# Where a name gives a salt, the structure may show the parent alone.
# Target: HPK1 (Homo sapiens (Human), UniProt Q92918)
# Experiment: HPK1 biochemical enzyme assay (microfluidic mobility shift assay)
# Conditions: 1.5 nM HPK1, ATP 1 mM final, 30 min preincubation, 60 min at RT, Caliper EZ Reader; read-out: HPK1 1000UMATP caliper IC50
# How it was run: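 Mobility shift readout of HPK1 activity after a 60 min RT reaction with 1 mM ATP, 1 μM substrate and 5 mM MgCl2. Enzyme/substrate mix was first exposed to compounds for 30 min, using ten-point curves topping at 3 μM final.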
# Chain of HPK1 (Q92918 whole entry): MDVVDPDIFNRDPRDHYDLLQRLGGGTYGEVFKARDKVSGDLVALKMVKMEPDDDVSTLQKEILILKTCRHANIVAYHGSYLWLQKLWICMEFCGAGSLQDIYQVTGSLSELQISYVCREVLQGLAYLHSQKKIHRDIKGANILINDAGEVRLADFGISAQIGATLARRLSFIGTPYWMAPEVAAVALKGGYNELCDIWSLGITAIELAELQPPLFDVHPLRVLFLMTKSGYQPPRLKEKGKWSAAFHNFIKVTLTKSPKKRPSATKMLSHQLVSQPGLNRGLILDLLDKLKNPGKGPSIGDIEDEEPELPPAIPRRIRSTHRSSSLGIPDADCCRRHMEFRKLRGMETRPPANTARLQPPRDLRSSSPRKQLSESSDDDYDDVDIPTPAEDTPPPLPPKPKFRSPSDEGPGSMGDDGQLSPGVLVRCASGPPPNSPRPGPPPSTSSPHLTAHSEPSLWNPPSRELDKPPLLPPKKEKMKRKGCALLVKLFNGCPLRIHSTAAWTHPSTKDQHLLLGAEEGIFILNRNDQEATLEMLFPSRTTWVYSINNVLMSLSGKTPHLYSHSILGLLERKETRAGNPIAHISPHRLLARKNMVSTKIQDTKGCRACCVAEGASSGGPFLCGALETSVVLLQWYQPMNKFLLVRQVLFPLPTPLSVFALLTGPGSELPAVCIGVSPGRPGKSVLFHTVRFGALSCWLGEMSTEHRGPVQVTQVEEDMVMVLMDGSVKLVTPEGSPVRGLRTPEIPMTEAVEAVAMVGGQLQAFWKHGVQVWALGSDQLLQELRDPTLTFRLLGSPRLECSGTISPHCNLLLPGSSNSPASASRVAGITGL
row,Molecule,IC50
1,"COc1cc(N2CCC(O)CC2)cnc1Nc1ccc(-c2ccnc3c2ccn3C)c2c1C(=O)NC2 [I-267, 7-((5-(4-hydroxy-piperidin-1-yl)-3-methoxypyridin-2-yl)amino)-4-(1-methyl-1H-pyrrolo[2,3-b]pyridin-4-yl)isoindolin-1-one]",> 1000 nM
2,"CN(C)Cc1nc(Nc2ccc(-c3cnc4cc(F)ccn34)c3c2C(=O)NC3)ccc1N1CCC[C@H](O)C1 [I-532, 7-[[6-[(dimethylamino)-methyl]-5-[(3S)-3-hydroxy-1-piperipyl]-2-pyridyl]amino]-4-(7-fluoroimidazo [1,2-a]pyridin-3-yl)isoindolin-1-one]",< 100 nM
3,"Cc1ccc2c(-c3ccc(Nc4ccc(N5CCO[C@H](C(C)(C)O)C5)cn4)c4c3CNC4=O)cnn2c1 [I-489, 7-[[5-[(2S)-2-(1-hydroxy-1-methylethyl)morpholin-4-yl]-2-pyripyl]amino]-4-(6-methylpyrazo-lo[1,5-a]pyridin-3-yl)isoindolin-1-one]",< 100 nM
4,"COC[C@@H]1CN(c2ccc(Nc3cnc(-c4ccnc5c4ccn5C)c4c3C(=O)NC4)nc2CN(C)C)CCO1 [I-797, (S)-7-((6-((dimethylamino)-methyl)-5-(2-(methoxymeth-yl)morpholino)-pyridin-2-yl)amino)-4-(1-methyl-1H-pyrrolo[2,3-b]pyridin-4-yl)-2,3-dihydro-1H-pyrrolo[3,4-c)pyridin-1-one]",< 100 nM
5,"7-[[5-(4-hydroxy-1- piperidyl)-2-pyridyl] amino]-4-imidazo[1,2- a]pyridin-3-yl- isoindolin-1-one [I-125]",< 100 nM
6,"O=C1NCc2c(-c3cnc4cc(F)ccn34)ccc(Nc3ccc(N4CCO[C@H](CN5CC(F)C5)C4)cn3)c21 [I-482, 7-[[5-[(2R)-2-[(3-fluoroazetidin-1-yl)methyl]mor pholin-4-yl]-2-pyridyl]amino] 4-(7-fluoroimidazo [1,2-a]pyridin-3-yl)isoindolin-1-one]",< 100 nM
7,"CN1CCC(C)(c2ccc(Nc3ccc(-c4ccnc5c4ccn5C)c4c3C(=O)NC4)nc2)CC1 [I-275, 7-((5-(1,4-dimethyl-piperidin-4-yl)pyridin-2-yl)amino)-4-(1-methyl-1H-pyrrolo[2,3-b]pyridin-4-yl)isoindolin-1-one]",< 100 nM
8,"C[C@H]1NC(=O)c2c(Nc3ccc(N4CCC(O)CC4)cn3)ccc(-c3cnc4ccccn34)c21 [I-317, (R)-7-((5-(4-hydroxy-piperidin-1-yl)pyridin-2-yl)amino)-4-(imidazo[1,2-a]pyridin-3-yl)-3-methylisoindo-lin-1-one]",< 100 nM
9,"O=C1NCc2c(-c3cnc4cnccn34)ccc(Nc3ccc(N4CCC[C@@H](O)CC4)cn3)c21 [I-329, (R)-7-((5-(4-hydroxyaze-pan-1-yl)pyridin-2-yl)amino)-4-(imidazol[1,2-a]pyrazin-3-yl)isoindolin-1-one]",< 100 nM
10,"O=C1NCc2c(-c3ccnn4cccc34)ncc(Nc3ccc(N4CCC(O)CC4)cn3)c21 [I-588, 7-((5-(4-hydroxypiperidin-1-yl)pyridin-2-yl)amino)-4-(pyrrolo[1,2-b]pyridazin-4-yl)-2,3-dihydro-1H-pyrrolo[3,4-c]pyridin-1-one]",> 1000 nM
11,"O=C1NCc2c(-c3cnc4cc(F)ccn34)ccc(Nc3ccc(N4CCCC5(CNCCO5)C4)cn3)c21 (stereo not drawn) [I-500, 4-(7-fluoroimidazo [1,2-a]pyridin-3-yl)-7-[[5-(1-oxa-4,8-diazaspiro[5.5]undecan-8-yl)-2-pyridyl]amino] isoindolin-1-one]",< 100 nM
12,"Cc1cccn2c(-c3ccc(Nc4ccc(N5CCC(O)CC5)cn4)c4c3CNC4=O)cnc12 [I-135, 7-[[5-(4-hydroxy-1-piperidyl)-2-pyridyl]amino]-4-(8-methylimidazo [1,2-a]pyridin-3-yl)isoindolin-1-one]",< 100 nM
13,"CN(C)Cc1cc(C2CCCO2)cc(Nc2ccc(-c3cnc4cc(F)ccn34)c3c2C(=O)NC3)n1 (stereo not drawn) [I-852, 7-((6-((dimethylamino)-methyl)-4-(tetrahydrofuran-2-yl)pyridin-2-yl)amino)-4-(7-fluoroimidazo [1,2-a]pyridin-3-yl)isoindolin-1-one Formate salt]",< 100 nM
14,"Cc1ccn2c(-c3ccc(Nc4ccc(N5CCO[C@H](C(C)(C)O)C5)cn4)c4c3CNC4=O)cnc2n1 [I-645, (S)-7-((5-(2-(2-hydroxypropan-2-yl)morpliolino)pyridin-2-yl)amino)-4-(7-methylimidazo [1,2-a]pyrimidin-3-yl) isoindolin-1-one]",< 100 nM
15,"CN(C)C[C@@]1(O)CCCN(c2ccc(Nc3ccc(-c4cnc5cc(F)ccn45)c4c3C(=O)NC4)nc2)C1 [I-568, (S)-7-((5-(3-((dimethylamino)-methyl)-3-hydroxypiperidin-1-yl)pyridin-2-yl)amino)-4-(7-fluoroimidazo [1,2-a]pyridin-3-yl)isoindolin-1-one]",< 100 nM

# Second part, the molecule after the results:
row,IC50,Molecule
1,< 100 nM,"CN1CCN(c2ccc(Nc3ccc(-c4c[nH]c5cc(F)ccc45)c4c3C(=O)NC4)nc2)CC1 [I-32, 4-(6-fluoro-1H-indol-3-yl)-7-[[5-(4-methylpiperazin-1-yl)-2-pyridyl]amino] isoindolin-1-one]"
2,< 100 nM,CO[C@H]1CCN(Cc2nc(Nc3ccc(-c4cnc5cc(F)ccn45)c4c3C(=O)NC4)ccc2[C@H]2CCOC2)C1 (stereo in doubt) [I-789]
3,< 100 nM,"O=C1NCc2c(-c3ccnc4[nH]ccc34)ncc(Nc3ccc(N4CCC(O)CC4)cn3)c21 [I-193, 7-[[5-(4-hydroxy-1-piperidyl)-2-pyridyl]-amino]-4-(1H-pyrrolo[2,3-b]pyridin-4-yl)-2,3-dihydropyrrolo [3,4-c]pyridin-1-one]"
4,> 1000 nM,Cn1ncc(Nc2ccc(-c3cnc4cc(F)ccn34)c3c2C(=O)NC3)c1C1CCOCC1 [I-396]
5,< 100 nM,"CN1CCOc2c(-c3ccc(Nc4ccc(N5CCNCC5)cn4)c4c3CNC4=O)ccnc21 [I-105, 4-(4-methyl-2,3-dihydropyrido [3,2-b][1.4]oxazin-8-yl)-7-[(5-piperazin-1-yl-2-pyridyl)amino] isoindolin-1-one]"
6,< 100 nM,"CN(Cc1nc(Nc2ccc(-c3cnc4cc(F)ccn34)c3c2C(=O)NC3)ccc1[C@H]1CCOC1)C1COC1 [I-743, (R)-4-(7-fluoroimidazo [1,2-a]pyridin-3-yl)-7-((6-((methyl(oxe-tan-3-yl)amino)meth-yl)-5-(tetrahydrofuran-3-yl)pyridin-2-yl)amino)isoin-dolin-1-one]"
7,< 100 nM,"CN(C)Cc1nc(Nc2ccc(-c3ccnc4c3ccn4C)c3c2C(=O)NC3)ccc1[C@H]1CCOC1 [I-546, (R)-7-((6-((dimethylamino)-methyl)-5-(tetrahydrofuran-3-yl)pyridin-2-yl)amino)-4-(1-methyl-1H-pyrrolo[2,3-b]pyridin-4-yl)isoindolin-1-one]"
8,< 100 nM,"O=C1NCc2c(-c3cnc4cc(Cl)ccn34)ccc(Nc3ccc(N4CCC(O)CC4)cn3)c21 [I-187, 4-(7-chloroimidazo [1,2-a]pyridin-3-yl)-7-[[5-(4-hydroxy-1-piperidyl)-2-pyridyl]amino] isoindolin-1-one]"
9,< 100 nM,"Cn1ccc2c(-c3ccc(Nc4ccc(N5CCC(O)(CN6CCOCC6)CC5)cn4)c4c3CNC4=O)ccnc21 [I-291, 7-((5-(4-hydroxy-4-(morpholino-methyl)piperi-din-1-yl)pyridin-2-yl)amino)-4-(1-methyl-1H-pyrrolo[2,3-b]pyridin-4-yl)isoindolin-1-one]"
10,100 to 1000 nM,"CN1CCN(c2ccc(Nc3ccc(-c4cnc5c(ccn5C)c4)c4c3C(=O)NC4)nc2)CC1 [I-44, 7-[[5-(4-methylpiperazin-1-yl)-2-pyridyl]amino]-4-(1-methylpyrrolo [2,3-b]pyridin-5-yl)isoindolin-1-one]"
11,< 100 nM,"Cc1cnc2c(-c3ccc(Nc4ccc(N5CCN(C)CC5)cn4)c4c3CNC4=O)cnn2c1 [I-111, 7-[[5-(4-methylpiperazin-1-yl)-2-pyridyl]amino]-4-(6-methylpyrazolo[1,5-a]pyrimidin-3-yl)isoindolin-1-one]"
12,< 100 nM,"CN1CCN(c2ccc(Nc3ccc(-c4cnc5ccccn45)c4c3C(=O)NC4)nc2)CC1 [I-39, 4-(imidazo[1,2-a]pyridin-3-yl)-7-((5-(4-methylpiperazin-1-yl)pyridin-2-yl)amino)isoindolin-1-one]"
13,< 100 nM,"CN1CCN(c2ccc(Nc3ccc(-c4cnc5[nH]ccc5c4)c4c3C(=O)NC4)nc2)CC1 [I-45, 7-[[5-(4-methylpiperazin-1-yl)-2-pyridyl]amino]-4-(1H-pyrrolo[2,3-b]pyridin-5-yl)isoindolin-1-one]"
14,< 100 nM,"O=C1NCc2c(-c3cnc4cc(F)ccn34)ccc(Nc3ccc(S(=O)(=O)CC4CCC4)cn3)c21 [I-321, 7-((5-((cyclobutyl-methyl)sulfonyl)pyridin-2-yl)amino)-4-(7-fluoroimidazo [1,2-a]pyridin-3-yl)isoindolin-1-one]"
15,< 100 nM,"CN1CCN(CC2(O)CCN(c3ccc(Nc4ccc(-c5cnc6cc(F)ccn56)c5c4C(=O)NC5)nc3)CC2)CC1 [I-365, 4-(7-fluoroimidazo [1,2-a]pyridin-3-yl)-7-((5-(4-hydroxy-4-((4-methylpiperazin-1-yl)methyl)pip-eridin-1-yl)pyridin-2-yl)amino)isoin-dolin-1-one]"
16,< 100 nM,"COc1c(F)ccn2c(-c3ccc(Nc4ccc(N5CCC(O)CC5)cn4)c4c3CNC4=O)cnc12 [I-242, 4-(7-fluoro-8-methoxy-imidazo[1,2-a]pyridin-3-yl)-7-[[5-(4-hydroxy-1-piperidyl)-2-pyridyl]amino] isoindolin-1-one]"
17,< 100 nM,O=C1NCc2c(-c3cnc4cc(F)ccn34)ccc(Nc3ccc([C@@H]4CCOC4)c(CN4CC[C@H](F)C4)n3)c21 (stereo in doubt) [I-736]
18,100 to 1000 nM,"CN(C)[C@H]1CCCc2ccc(Nc3ccc(-c4cnc5cc(F)ccn45)c4c3C(=O)NC4)nc21 [I-841, (S)-7-((8-(dimethylam-ino)-5,6.7,8-tetrahydroquin-olin-2-yl)amino)-4-(7-fluoroimidazo [1,2-a]pyridin-3-yl)isoindolin-1-one]"
